Measured values published in patent publication US20060248793A1, “Method for making fungi compatible artificial snow” (priority 2005, published 2006).

Columns and labels:
Laccaria bicolor = experiment: ECM fungal inhibition (Table 1); type: cell-based; set-up: key: +=fungicidal; conditions: unpublished results
Excerpt: (§1) In addition to laboratory studies, ECM fungi that exist in high elevation sites of the Rocky Mountains and that are also culturable in artificial media are studied. These include: Amanita muscaria, Boletus edulis, Hebeloma crustuliniform, Laccaria bicolor, Laccaria laccata, Lactarius deliciosus, Lactarius rufus, Suillus brevipes, Suillus tomentosus, Rhizopogon occidentalis, and Rhizopogon subcaerulescens. Cultures of these fungi are available from the laboratory of Kropp, Utah State University or are obtained from the American Type Culture Collection. Syringomycin-containing extracts from P. syringae 31R and SnoMax® are prepared by methods used for extraction of cyclic lipodepsipeptides (FIG. 2) (1). Briefly, equal volumes of acidified acetone are added to bacterial cultures and SnoMax® suspensions. The mixtures are centrifuged and evaporated to give the aqueous extracts for testing. SnoMax® itself is suspended in water (0.1 g per ml), and the suspension is tested for fungicidal activities.
(§2) For testing, the linear growth of the various ECM fungi in the presence and absence (controls) of extracts and SnoMax® suspensions are analyzed. Sterile agar strips (5 cm×1.5 cm, cut from fresh agar plates and placed in sterile plastic petri dishes) are inoculated at one end with a 5 mm diameter inoculum plug of the ECM fungus to be tested. Paper disks (1 cm diameter) are soaked in filter-sterilized extracts and SnoMax® suspensions and placed at the opposite end of the agar strip. Control strips with disks soaked in sterile distilled water are also be prepared. The concentrations of the extracts to be used are based on the independent determination of the minimal inhibitory concentrations needed to inhibit the in vitro growth of the yeast R. pilimanae. Two levels of 2-fold dilutions above and below this concentration are used. The plates are sealed with Parafilm and incubated at room temperature for several weeks. The extent of linear growth is measured and compared. The ages of the inoculum cultures are standardized and all inoculum disks are taken from the actively growing colony margin. […]

Suillus brevipes = experiment: ECM fungal inhibition (Table 1); type: cell-based; set-up: key: +=fungicidal; conditions: unpublished results
Excerpt: as §1, §2

Suillus tomentosus = experiment: ECM fungal inhibition (Table 1); type: cell-based; set-up: key: +=fungicidal; conditions: unpublished results
Excerpt: as §1, §2

Rhodotorula pilimanae [1] = test system: Rhodotorula pilimanae; set-up: key: +=fungicidal; conditions: references 4, 5; cited from earlier work
Saccharomyces cerevisiae = test system: Saccharomyces cerevisiae; set-up: key: +=fungicidal; conditions: references 3, 5, 8; cited from earlier work
Candida albicans = test system: Candida albicans; set-up: key: +=fungicidal; conditions: references 3, 8; cited from earlier work
Candida kefyr = test system: Candida kefyr; set-up: key: +=fungicidal; conditions: cited from earlier work
Candida krusei = test system: Candida krusei; set-up: key: +=fungicidal; conditions: cited from earlier work
Candida parapsilosis = test system: Candida parapsilosis; set-up: key: +=fungicidal; conditions: cited from earlier work
Candida rugosa = test system: Candida rugosa; set-up: key: +=fungicidal; conditions: cited from earlier work
Candida tropicalis = test system: Candida tropicalis; set-up: key: +=fungicidal; conditions: cited from earlier work
Mucor sp. = test system: Mucor sp.; set-up: key: +=fungicidal; conditions: cited from earlier work
Microsporium sp. = test system: Microsporium sp.; set-up: key: +=fungicidal; conditions: cited from earlier work
Trichophyton sp. = test system: Trichophyton sp.; set-up: key: +=fungicidal; conditions: cited from earlier work
Cryptococcus neoformans = test system: Cryptococcus neoformans; set-up: key: +=fungicidal; conditions: cited from earlier work
Aspergillus fumigatus = test system: Aspergillus fumigatus; set-up: key: +=fungicidal; conditions: cited from earlier work
Aspergillus flavus = test system: Aspergillus flavus; set-up: key: +=fungicidal; conditions: reference 1; cited from earlier work
Aspergillus niger = test system: Aspergillus niger; set-up: key: +=fungicidal; conditions: cited from earlier work
Fusarium moliniforme = test system: Fusarium moliniforme; set-up: key: +=fungicidal; conditions: cited from earlier work
Fusarium oxysporum = test system: Fusarium oxysporum; set-up: key: +=fungicidal; conditions: cited from earlier work
Fusarium solani = test system: Fusarium solani; set-up: key: +=fungicidal; conditions: cited from earlier work
Penicillium expansum = test system: Penicillium expansum; set-up: key: +=fungicidal; conditions: cited from earlier work
Penicillium digitatum = test system: Penicillium digitatum; set-up: key: +=fungicidal; conditions: cited from earlier work
Penicillium radulatum = test system: Penicillium radulatum; set-up: key: +=fungicidal; conditions: cited from earlier work
Penicillium raistrikii = test system: Penicillium raistrikii; set-up: key: +=fungicidal; conditions: cited from earlier work
Geotricum candidum = test system: Geotricum candidum; set-up: key: +=fungicidal; conditions: references 2, 6, 7, 8; cited from earlier work
Geotricum citri-aurantii = test system: Geotricum citri-aurantii; set-up: key: +=fungicidal; conditions: cited from earlier work
Verticillium dahliae = test system: Verticillium dahliae; set-up: key: +=fungicidal; conditions: cited from earlier work
Botrytis cinera = test system: Botrytis cinera; set-up: key: +=fungicidal; conditions: cited from earlier work
Ceratocystis fimbriata = test system: Ceratocystis fimbriata; set-up: key: +=fungicidal; conditions: cited from earlier work
Ustilago maydis = test system: Ustilago maydis; set-up: key: +=fungicidal; conditions: cited from earlier work
Thielaviopsis basicola = test system: Thielaviopsis basicola; set-up: key: +=fungicidal; conditions: cited from earlier work
Phytophthora infestans = test system: Phytophthora infestans; set-up: key: +=fungicidal; conditions: cited from earlier work
Trichoderma atroviridae = test system: Trichoderma atroviridae; set-up: key: +=fungicidal; conditions: cited from earlier work
Rhizoctonia solani = test system: Rhizoctonia solani; set-up: key: +=fungicidal; conditions: cited from earlier work
Alternaria alternate = test system: Alternaria alternate; set-up: key: +=fungicidal; conditions: cited from earlier work
Aureobasidium pullulans = test system: Aureobasidium pullulans; set-up: key: +=fungicidal; conditions: cited from earlier work
Cladosporium herbarum = test system: Cladosporium herbarum; set-up: key: +=fungicidal; conditions: cited from earlier work
Rhizopus sp. = test system: Rhizopus sp.; set-up: key: +=fungicidal; conditions: cited from earlier work
Rhodotorula pilimanae [2] = experiment: Fungal inhibition, spot test on lawn (Table 1, FIG. 1-3); type: cell-based; conditions: HPLC peak material purified from P. syringae 31R cultures
Experimental: Ten μL quantities of undiluted filtrate (1) and multiple aliquots of 2-fold dilutions of the filtrate (2-9) were applied to potato dextrose agar plates with freshly streaked R. pilimanae. The plate was incubated for 1 day at 28° C. The cleared spots show fungicidal growth inhibition.
Ten μL quantities of undiluted (1) and 2^−1 (2), 2^−2 (3) and 2^−3 (4) dilutions of the extracts were applied to potato dextrose agar plates with freshly streaked R. pilimanae. The plate was incubated for 1 day at 28° C. The cleared spots show fungicidal growth inhibition.
SnoMax® (1 g) was suspended in 5 ml H2O. One ml was mixed with 1 ml of acidified acetone, centrifuged, and the supernatant was recovered. An aliquot (200 μL) of the extract was evaporated to near dryness at 40° C. H2O (100 μL) was added and the mixture evenly suspended. Ten μL each of the SnoMax® suspension, extract, and H2O control were spotted onto a fresh lawn of R. pilimanae on PDA medium and incubated at 28° C. for 24 h.
SnoMax® was obtained from the snow making operation of a local Utah ski resort. One gram was suspended in water and an aliquot was extracted with acidified acetone. The extract was dried, suspended in water, and the solutions were tested for inhibitory activity against R. pilimanae grown as a lawn on potato dextrose agar medium (1) (FIG. 3). This assay is determines syringomycin production.

Rhodotorula pilimanae [3] = experiment: Effect of pH on the antifungal activity of Snomax suspensions (FIG. 4); type: cell-based; conditions: R. pilimanae lawn, 28° C., 36 hours
Experimental: SnoMax was mixed and suspended with water for 1 hour at room temperature, the pHs were adjusted to 6, 8, or 10 by titrating with dilute solutions of NaOH and HCl, and the suspensions incubated at the final pHs for 1 hour at room temperature. The suspensions were then freeze dried. The freeze dried powders were extracted with acidified acetone, centrifuged, and the supernatant fractions recovered. Acetone was evaporated off at 45° C. and the residues serial diluted (2 fold) in water. Ten microliter aliquots of 2^−1 (a), 2^−2 (b), and 2^−3 (c) dilutions were deposited on a freshly prepared lawn of Rhodotorula pilimanae onto potato-dextrose-casamino acids (PDA-CA) agar medium prepared in Petri dishes. A 10 microliter aliquot of pure syringomycin E (1 mg per ml) was also applied (d). The Petri dishes were incubated at 28° C. for 36 hours. Result: pH 8 and 10 treatments eliminated the antifungal activities of snomax suspension and of syringomycin E, the latter serving as positive control.

syringomycin [SR]
Fungal species inhibited (Laccaria bicolor): + | Fungal species inhibited (Suillus brevipes): + | Fungal species inhibited (Suillus tomentosus): + | Fungal species inhibited (Rhodotorula pilimanae [1]): ^c+ | Fungal species inhibited (Saccharomyces cerevisiae): + | Fungal species inhibited (Candida albicans): + | Fungal species inhibited (Candida kefyr): + | Fungal species inhibited (Candida krusei): + | Fungal species inhibited (Candida parapsilosis): + | Fungal species inhibited (Candida rugosa): + | Fungal species inhibited (Candida tropicalis): + | Fungal species inhibited (Mucor sp.): + | Fungal species inhibited (Microsporium sp.): + | Fungal species inhibited (Trichophyton sp.): + | Fungal species inhibited (Cryptococcus neoformans): + | Fungal species inhibited (Aspergillus fumigatus): + | Fungal species inhibited (Aspergillus flavus): + | Fungal species inhibited (Aspergillus niger): + | Fungal species inhibited (Fusarium moliniforme): + | Fungal species inhibited (Fusarium oxysporum): + | Fungal species inhibited (Fusarium solani): + | Fungal species inhibited (Penicillium expansum): + | Fungal species inhibited (Penicillium digitatum): + | Fungal species inhibited (Penicillium radulatum): + | Fungal species inhibited (Penicillium raistrikii): + | Fungal species inhibited (Geotricum candidum): + | Fungal species inhibited (Geotricum citri-aurantii): + | Fungal species inhibited (Verticillium dahliae): + | Fungal species inhibited (Botrytis cinera): + | Fungal species inhibited (Ceratocystis fimbriata): + | Fungal species inhibited (Ustilago maydis): + | Fungal species inhibited (Thielaviopsis basicola): + | Fungal species inhibited (Phytophthora infestans): + | Fungal species inhibited (Trichoderma atroviridae): + | Fungal species inhibited (Rhizoctonia solani): + | Fungal species inhibited (Alternaria alternate): + | Fungal species inhibited (Aureobasidium pullulans): + | Fungal species inhibited (Cladosporium herbarum): + | Fungal species inhibited (Rhizopus sp.): +

syringomycin E
growth inhibitory activity against R. pilimanae, other yeasts and filamentous fungi (Rhodotorula pilimanae [2]): growth inhibitory activity | antifungal activity after pH treatment (Rhodotorula pilimanae [3]; pH 8, 1 hour at room temperature): eliminated | antifungal activity after pH treatment (Rhodotorula pilimanae [3]; pH 10, 1 hour at room temperature): eliminated
